Active and inactive are the calls of the source. The calls are words filed in the database; no cut-off is given here.
What was measured:
[1] = tested on: Human immunodeficiency virus 1; test: Antiviral activity against HIV1 NL4-3 infected in human MT4 cells assessed as reduction in virus-induced cell death by MTT assay; type: functional, organism-based; conditions: Human immunodeficiency virus 1, NL4-3, MT4
[2] = tested on: Human immunodeficiency virus 1; type: functional, organism-based; conditions: Human immunodeficiency virus 1, NL4-3, MT4
[3] = tested on: Human immunodeficiency virus 1; type: functional, organism-based; conditions: Human immunodeficiency virus 1, NL4-3, MT4; remark: listed apart in the source
[4] = tested on: Human immunodeficiency virus 1; type: functional, organism-based; conditions: Human immunodeficiency virus 1, NL4-3, MT4; remark: listed apart in the source
[5] = target: T1, Human immunodeficiency virus type 1 reverse transcriptase (Human immunodeficiency virus 1, UniProt Q72547)
[6] = target: Human immunodeficiency virus type 1 reverse transcriptase (Human immunodeficiency virus 1, UniProt Q72547, V106A); test: Inhibition of […] HIV1 reverse transcriptase V106A mutant assessed as reduction in enzyme activity
[7] = tested on: Human immunodeficiency virus 1; test: Antiviral activity against HIV1 Clade A (UG273) infected in human PBMC assessed as reduction in p24 antigen production; type: functional, organism-based; conditions: Human immunodeficiency virus 1, Clade A (UG273)
[8] = tested on: Human immunodeficiency virus 1; test: Antiviral activity against HIV1 Clade B (BaL) infected in human PBMC assessed as reduction in p24 antigen production; type: functional, organism-based; conditions: Human immunodeficiency virus 1, Clade B (BaL)
[9] = tested on: Human immunodeficiency virus 1; test: Antiviral activity against HIV1 Clade C (DJ259) infected in human PBMC assessed as reduction in p24 antigen production; type: functional, organism-based; conditions: Human immunodeficiency virus 1, Clade C (DJ259)
[10] = tested on: Human immunodeficiency virus 1; test: Antiviral activity against HIV1 Clade D (UG270) infected in human PBMC assessed as reduction in p24 antigen production; type: functional, organism-based; conditions: Human immunodeficiency virus 1, Clade D (UG270)
[11] = tested on: Human immunodeficiency virus 1; test: Antiviral activity against HIV1 Clade A/E (ID12) infected in human PBMC assessed as reduction in p24 antigen production; type: functional, organism-based; conditions: Human immunodeficiency virus 1, Clade A/E (ID12)
[12] = tested on: Human immunodeficiency virus 1; test: Antiviral activity against HIV1 Clade F (BZ162) infected in human PBMC assessed as reduction in p24 antigen production; type: functional, organism-based; conditions: Human immunodeficiency virus 1, Clade F (BZ162)
[13] = tested on: Human immunodeficiency virus 1; test: Antiviral activity against HIV1 Clade G (HH8793) infected in human PBMC assessed as reduction in p24 antigen production; type: functional, organism-based; conditions: Human immunodeficiency virus 1, Clade G (HH8793)
[14] = tested on: Human immunodeficiency virus 2; test: Antiviral activity against HIV2 ROD infected in human PBMC cells assessed as reduction in p24 antigen production; type: functional, organism-based; conditions: ISOLATE ROD
Plasma = test: Stability in human plasma assessed as compound hydrolysis after 24 hrs; type: ADME, cell-free
[15] = Permeability by PAMPA method; type: ADME
[16] = Drug retention assessed as membrane retention by PAMPA method; type: physicochemical
[17] = Stability in human plasma assessed as remaining unmodified parent compound level after 24 hrs; type: ADME, cell-free; conditions: read-out: Stability
[18] = target: T1, Human immunodeficiency virus type 1 reverse transcriptase; remark: listed apart in the source
Description: Inhibition of wild type HIV1 reverse transcriptase assessed as reduction in enzyme activity

[19] = target: Human immunodeficiency virus type 1 reverse transcriptase (Human immunodeficiency virus 1, UniProt Q72547, K103N)
Description: Inhibition of wild type HIV1 reverse transcriptase K103N mutant assessed as reduction in enzyme activity

[20] = target: Human immunodeficiency virus type 1 reverse transcriptase (Human immunodeficiency virus 1, UniProt Q72547, L100I)
Description: Inhibition of wild type HIV1 reverse transcriptase L100I mutant assessed as reduction in enzyme activity

**Q.** What does the source list for `Cc1cc(C)cc(S(=O)(=O)c2c(C(=O)N[C@H](C)c3ccncc3)[nH]c3ccc(Cl)cc23)c1`?
**A.** EC50 [1]: 0.2 nM; EC50 [2]: 2.1 nM; EC50 [3]: 933 nM; EC50 [4]: 150 nM; IC50 [5]: 2230 nM; IC50 [6]: 26 nM; EC50 [7]: 3.4 nM; EC50 [8]: 2.1 nM; EC50 [9]: 0.7 nM; EC50 [10]: 1.8 nM; EC50 [11]: 1.2 nM; EC50 [12]: 1.6 nM; EC50 [13]: 1.7 nM; Activity [14]: inactive; Stability (Plasma): Stable; Papp [15]: 124 nm/s; Drug uptake [16]: 0%; remaining at 24 h [17]: 99%; IC50 [18]: 18 nM; IC50 [19]: 50 nM; IC50 [20]: 3 nM

Reference: ChEMBL document CHEMBL3351613, “Indolylarylsulfones carrying a heterocyclic tail as very potent and broad spectrum HIV-1 non-nucleoside reverse transcriptase inhibitors” (J Med Chem, 2014)
